# Assay results published in paper PMC11012124, “Synthesis of Novel Triazine-Based Chalcones and 8,9-dihydro-7H-pyrimido[4,5-b][1,4]diazepines as Potential Leads in the Search of Anticancer, Antibacterial and Antifungal Agents” (International Journal of Molecular Sciences, 2024).
# Key:
# [1] = tested on: SF-295; assay: cells; settings: Homo sapiens, SF-295, 48 h; for CC50: read-out: LC50
# [2] = tested on: A549/ATCC; assay: cells; settings: Homo sapiens, A549, 48 h; for CC50: read-out: LC50
# [3] = tested on: T-47D; assay: cells; settings: Homo sapiens, T47D, 48 h; for CC50: read-out: LC50
# [4] = tested on: 786-0; assay: cells; settings: Homo sapiens, 786-0, 48 h; for CC50: read-out: LC50
# [5] = tested on: KM12; assay: cells; settings: Homo sapiens, KM12, 48 h; for CC50: read-out: LC50
# [6] = tested on: SF-539; assay: cells; settings: Homo sapiens, SF-539, 48 h; for CC50: read-out: LC50, SF-539, 48 h
# [7] = tested on: MCF7; assay: cells; settings: Homo sapiens, MCF7, 48 h; for CC50: read-out: LC50
# [8] = tested on: COLO 205; assay: cells; settings: Homo sapiens, COLO 205, 48 h; for CC50: read-out: LC50
# [9] = tested on: HT29; assay: cells; settings: Homo sapiens, HT-29, 48 h; for CC50: read-out: LC50
# [10] = tested on: TK-10; assay: cells; settings: Homo sapiens, TK-10, 48 h; for CC50: read-out: LC50
# [11] = tested on: OVCAR-5; assay: cells; settings: Homo sapiens, OVCAR-5, 48 h; for CC50: read-out: LC50
# [12] = tested on: NCI-H460; assay: cells; settings: Homo sapiens, NCI-H460, 48 h; for CC50: read-out: LC50
# [13] = tested on: DU-145; assay: cells; settings: Homo sapiens, DU-145, 48 h; for CC50: read-out: LC50
# [14] = tested on: SK-OV-3; assay: cells; settings: Homo sapiens, SK-OV-3, 48 h; for CC50: read-out: LC50
# [15] = tested on: M14; assay: cells; settings: Homo sapiens, M14, 48 h; for CC50: read-out: LC50
# [16] = tested on: 60 cancer cell lines; assay: NCI-60 one-dose screen (10 μM); assay type: cell-based; settings: Homo sapiens; one dose of 10 μM, mean over 60 cancer cell lines; read-out: Mean Growth Percent (MGP)
# From the text: Additionally, the mean of the growth percentages (MGP) of each compound against all the 60 cancer cell lines is also reported, which is used as one of the selection criteria to continue with tests at five concentration doses.
# [17] = tested on: NCI-H522; assay: cells; settings: Homo sapiens, NCI-H522, 48 h; for CC50: read-out: LC50
# [18] = tested on: SNB-75; assay: cells; settings: Homo sapiens, SNB-75, 48 h; for CC50: read-out: LC50
# [19] = tested on: HCT-15; assay: cells; settings: Homo sapiens, HCT-15, 48 h; for CC50: read-out: LC50
# [20] = tested on: UO-31; assay: cells; settings: Homo sapiens, UO-31, 48 h; for CC50: read-out: LC50
# [21] = tested on: SK-MEL-2; assay: cells; settings: Homo sapiens, SK-MEL-2, 48 h; for CC50: read-out: LC50
# [22] = tested on: HL-60(TB); assay: cells; settings: Homo sapiens, HL-60, 48 h; for CC50: read-out: LC50
# [23] = tested on: RPMI-8226; assay: cells; settings: Homo sapiens, RPMI-8226, 48 h; for CC50: read-out: LC50
# [24] = tested on: NCI-H226; assay: cells; settings: Homo sapiens, NCI-H226, 48 h; for CC50: read-out: LC50
# [25] = tested on: HCT-116; assay: cells; settings: Homo sapiens, HCT-116, 48 h; for CC50: read-out: LC50
# [26] = tested on: UACC-257; assay: cells; settings: Homo sapiens, UACC-257, 48 h; for CC50: read-out: LC50
# [27] = tested on: LOX IMVI; assay: cells; settings: Homo sapiens, 48 h; for CC50: read-out: LC50, LOX IMVI, 48 h
# [28] = tested on: MDA-MB-468; assay: cells; settings: Homo sapiens, MDA-MB-468, 48 h; for CC50: read-out: LC50
# [29] = tested on: MOLT-4; assay: cells; settings: Homo sapiens, MOLT-4, 48 h
# [30] = tested on: NCI-H23; assay: cells; settings: Homo sapiens, NCI-H23, 48 h; for CC50: read-out: LC50
# [31] = tested on: SK-MEL-5; assay: cells; settings: Homo sapiens, SK-MEL-5, 48 h; for CC50: read-out: LC50
# [32] = tested on: OVCAR-4; assay: cells; settings: Homo sapiens, OVCAR-4, 48 h; for CC50: read-out: LC50
# [33] = tested on: A498; assay: cells; settings: Homo sapiens, A498, 48 h; for CC50: read-out: LC50
# [34] = tested on: U251; assay: cells; settings: Homo sapiens, U-251, 48 h; for GI50: U251, 48 h; for CC50: read-out: LC50
# [35] = tested on: HOP-92; assay: cells; settings: Homo sapiens, HOP-92, 48 h; for CC50: read-out: LC50
smiles,measurement,setting,value
CN(C)c1nc(NCCNS(=O)(=O)c2ccc(C3=Nc4c(N)nc(N)nc4NC(c4ccc(F)cc4)C3)cc2)nc(Nc2ccc(F)cc2)n1 (stereo not shown) [31f],GI50,[1],6.71 µM
same,CC50,[1],> 100 µM
same,GI50,[2],> 100 µM
same,CC50,[2],> 100 µM
same,GI50,[3],4.86 µM
same,CC50,[3],> 100 µM
same,GI50,[4],4.77 µM
same,CC50,[4],> 100 µM
same,GI50,[5],4.69 µM
same,CC50,[5],> 100 µM
same,GI50,[6],3.89 µM
same,CC50,[6],> 100 µM
same,GI50,[7],3.16 µM
same,CC50,[7],43.7 µM
same,GI50,[8],11.8 µM
same,CC50,[8],> 100 µM
same,GI50,[9],3.88 µM
same,CC50,[9],> 100 µM
same,GI50,[10],> 100 µM
same,CC50,[10],> 100 µM
same,GI50,[11],> 100 µM
same,CC50,[11],> 100 µM
same,GI50,[12],4.74 µM
same,CC50,[12],> 100 µM
same,GI50,[13],52 µM
same,CC50,[13],> 100 µM
same,GI50,[14],> 100 µM
same,CC50,[14],> 100 µM
same,GI50,[15],3.84 µM
same,CC50,[15],25.3 µM
same,activity at 10 µM,[16],37.1%
same,GI50,[17],34.8 µM
same,CC50,[17],> 100 µM
same,GI50,[18],2.53 µM
same,CC50,[18],74 µM
same,GI50,[19],> 100 µM
same,CC50,[19],> 100 µM
same,GI50,[20],> 100 µM
same,CC50,[20],> 100 µM
same,GI50,[21],8.17 µM
same,CC50,[21],29 µM
same,GI50,[22],3.12 µM
same,CC50,[22],> 100 µM
same,GI50,[23],5.25 µM
same,CC50,[23],> 100 µM
same,GI50,[24],> 100 µM
same,CC50,[24],> 100 µM
same,GI50,[25],4.54 µM
same,CC50,[25],> 100 µM
same,GI50,[26],11.4 µM
same,CC50,[26],> 100 µM
same,GI50,[27],2.62 µM
same,CC50,[27],9.13 µM
same,GI50,[28],2.15 µM
same,CC50,[28],6.24 µM
same,GI50,[29],2.45 µM
same,GI50,[30],54.1 µM
same,CC50,[30],> 100 µM
same,GI50,[31],3.36 µM
same,CC50,[31],14.9 µM
same,CC50,[32],> 100 µM
same,GI50,[33],22.1 µM
same,CC50,[33],> 100 µM
same,GI50,[34],6.35 µM
same,CC50,[34],> 100 µM
same,GI50,[35],3.09 µM
same,CC50,[35],23.3 µM
CN(C)c1nc(NCCNS(=O)(=O)c2ccc(C3=Nc4c(N)nc(N)nc4NC(c4ccc(C(F)(F)F)cc4)C3)cc2)nc(Nc2ccc(F)cc2)n1 (stereo not shown) [31g],GI50,[1],12.9 µM
same,CC50,[1],86 µM
same,GI50,[2],55 µM
same,CC50,[2],86 µM
same,GI50,[3],12 µM
same,CC50,[3],86 µM
same,GI50,[4],10.1 µM
same,CC50,[4],39.8 µM
same,GI50,[5],6.14 µM
same,CC50,[5],86 µM
same,GI50,[6],6.22 µM
same,CC50,[6],24.7 µM
same,GI50,[7],2.87 µM
same,CC50,[7],21 µM
same,GI50,[8],9.73 µM
same,CC50,[8],21.8 µM
same,GI50,[9],4.88 µM
same,CC50,[9],18.3 µM
same,GI50,[10],> 86 µM
same,CC50,[10],> 86 µM
same,GI50,[11],19.9 µM
same,CC50,[11],86 µM
same,GI50,[12],5.49 µM
same,CC50,[12],86 µM
same,GI50,[13],38.5 µM
same,CC50,[13],86 µM
same,GI50,[14],> 86 µM
same,CC50,[14],> 86 µM
same,GI50,[15],7.87 µM
same,CC50,[15],86 µM
same,activity at 10 µM,[16],6.81%
same,GI50,[17],17.8 µM
same,CC50,[17],44.8 µM
same,GI50,[18],2.13 µM
same,CC50,[18],86 µM
same,GI50,[19],55.1 µM
same,CC50,[19],86 µM
same,GI50,[20],> 86 µM
same,CC50,[20],> 86 µM
same,GI50,[21],10.8 µM
same,CC50,[21],24.7 µM
same,GI50,[22],4.07 µM
same,CC50,[22],86 µM
same,GI50,[23],4 µM
same,CC50,[23],86 µM
same,GI50,[24],37.3 µM
same,CC50,[24],86 µM
same,GI50,[25],5.1 µM
same,CC50,[25],86 µM
same,GI50,[26],23.3 µM
same,CC50,[26],86 µM
same,GI50,[27],3.14 µM
same,CC50,[27],12 µM
same,GI50,[28],2.67 µM
same,CC50,[28],11.7 µM
same,GI50,[29],2.74 µM
same,CC50,[29]; read-out: LC50,86 µM
same,GI50,[30],27.7 µM
same,CC50,[30],86 µM
same,GI50,[31],10.4 µM
same,CC50,[31],21.3 µM
same,GI50,[32],25 µM
same,CC50,[32],86 µM
same,GI50,[33],22.2 µM
same,CC50,[33],77.4 µM
same,GI50,[34],5.52 µM
same,CC50,[34],86 µM
same,GI50,[35],2.99 µM
same,CC50,[35],16.9 µM
